Source: patent publication US8741886B2, “Baclofen and acamprosate based therapy of neurological disorders” (Pharnext, priority 2011, dated 2014)

Key:
[1] = test system: Human brain microvascular endothelial cerebral cells (HBMEC); assay: Toxicity of human Aβ1-42 peptide on HBMEC: total length of capillary network; assay type: cell-based; details: Aβ1-42 2.5 μM; single drugs at the concentrations used in the combination
Method: Human brain microvascular endothelial cell cultures were used to study the protection afforded by candidate compound(s) on Aβ1-42 toxicity.
Human brain microvascular endothelial cerebral cells (HBMEC, ScienCell Ref: 1000, frozen at passage 10) were rapidly thawed in a waterbath at +37° C. The supernatant was immediately put in 9 ml Dulbecco's modified Eagle's medium (DMEM; Pan Biotech ref: P04-03600) containing 10% of foetal calf serum (FCS; GIBCO ref 10270-106). […]
• Negative Control: medium alone+0.1% DMSO • Intoxication: amyloid-β1-42 (2.5 μM) for 18 h • Positive control: VEGF-165 (10 nM) (1 reference compound/culture) 1 hr before the Aβ1-42 (2.5 μM) addition for a 18 h incubation time. • Test compounds: Test compound(s) 1 hr before the Aβ1-42 (2.5 μM) addition for a 18 h incubation time. Capillary Network Quantification
Per well, 2 pictures with 4× lens were taken using InCell Analyzer™ 1000 (GE Healthcare) in light transmission. […] The total length of capillary network was assessed.
Data were expressed in percentage of control conditions (no intoxication, no amyloid=100%) in order to express the amyloid injury. All values were expressed as mean+/−SEM (s.e.mean) of the 3 cultures (n=6 wells per condition). […]

[2] = test system: mice injected i.c.v. with Aβ25-35 peptide; assay: Spontaneous alternation, Y-maze test, after i.c.v. Aβ25-35; assay type: in vivo; details: drugs alone: Donepezil 0.25 mg/kg/day, Acamprosate 32 μg/kg/day, Baclofen 480 μg/kg/day
Excerpt: The Y-maze is made of grey polyvinylchloride. Each arm is 40 cm long, 13 cm high, 3 cm wide at the bottom, 10 cm wide at the top, and converging at an equal angle. […] An alternation is defined as entries into all three arms on consecutive occasions.

rat cortical neurons = assay: Toxicity of Aβ1-42 in neurite growth model: total length of neurite network; assay type: cell-based; details: Aβ1-42 2.5 μM; single drugs at the concentrations used in the combination
Method: Rat cortical neurons were cultured as described by Singer et al. (35). Briefly pregnant female rats of 15 days gestation were killed by cervical dislocation (Rats Wistar) and the foetuses were removed from the uterus. The cortex was removed and placed in ice-cold medium of Leibovitz (L15) containing 2% of Penicillin 10.000 U/ml and Streptomycin 10 mg/ml and 1% of bovine serum albumin (BSA). Cortices were dissociated by trypsin for 20 min at 37° C. (0.05%). The reaction was stopped by the addition of Dulbecco's modified Eagle's medium (DMEM) containing DNasel grade II and 10% of foetal calf serum (FCS). Cells were then mechanically dissociated by 3 serial passages through a 10 ml pipette and centrifuged at 515×g for 10 min at +4° C. […] Viable cells were counted in a Neubauer cytometer using the trypan blue exclusion test. […]
After 24 hours of intoxication, the supernatant is taken off and the cortical neurons are fixed by a cold solution of ethanol (95%) and acetic acid (5%) for 5 min. […] Then, cells are incubated with monoclonal antibody anti microtubule-associated-protein 2 (MAP-2; Sigma) or with anti synaptophysin (SYN, S5798, Sigma) together with anti PSD95 (P246, Sigma) antibodies in order to quantify synapses. […]

NCC(CC(=O)O)c1ccc(Cl)cc1 (stereo not drawn) [Baclofen]
no significant effect: effect on Aβ1-42 intoxication, total length of capillary network (in words) [1] | effect on percentage of alternation (Y-maze), low doses (in words) [2] | effect on Aβ1-42 intoxication, total length of neurites network (in words) (rat cortical neurons)

CC(=O)NCCCS(=O)(=O)O [Acamprosate]
no significant effect: effect on Aβ1-42 intoxication, total length of capillary network (in words) [1] | effect on percentage of alternation (Y-maze), low doses (in words) [2] | effect on Aβ1-42 intoxication, total length of neurites network (in words) (rat cortical neurons)
